Measurements published in ChEMBL document CHEMBL1138173, “Synthesis and biological evaluation of photoaffinity labeled fusidic acid analogues” (2006).
Converted amounts (≈) assume the structure as drawn.

Key:
Format in all cases: functional
Staphylococcus aureus [1] = assay: Antibacterial activity against Staphylococcus aureus CJ 251
Staphylococcus aureus [2] = assay: Antibacterial activity against Staphylococcus aureus CJ 234 R
Corynebacterium xerosis = assay: Antibacterial activity against Corynebacterium xerosis FF
Staphylococcus aureus [3] = assay: Antibacterial activity against Staphylococcus aureus CJ 288
[4] = system: Staphylococcus epidermidis; assay: Antibacterial activity against Staphylococcus epidermidis CK 5
Staphylococcus aureus [5] = assay: Antibacterial activity against Staphylococcus aureus CJ 200
Staphylococcus aureus [6] = assay: Antibacterial activity against Staphylococcus aureus CJ 247

CC(=O)O[C@H]1C[C@@]2(C)[C@@H](C[C@@H](O)[C@H]3[C@@]4(C)CC[C@@H](O)[C@@H](C)C4CC[C@@]32C)/C1=C(\CCCCc1ccc(N=[N+]=[N-])cc1)C(=O)O (stereo partly specified)
MIC (Staphylococcus aureus [1]): 1 µg/mL (≈ 1.65 µM) | MIC (Staphylococcus aureus [2]): 1 µg/mL (≈ 1.65 µM) | MIC (Corynebacterium xerosis): 0.016 µg/mL (≈ 0.0263 µM) | MIC (Staphylococcus aureus [3]): 1 µg/mL (≈ 1.65 µM) | MIC [4]: 4 µg/mL (≈ 6.58 µM) | MIC (Staphylococcus aureus [5]): 1 µg/mL (≈ 1.65 µM)

CC(=O)O[C@H]1C[C@@]2(C)[C@@H](C[C@@H](O)[C@H]3[C@@]4(C)CC[C@@H](O)[C@@H](C)C4CC[C@@]32C)/C1=C(\CCCCc1ccc(C(=O)c2ccccc2)cc1)C(=O)O (stereo partly specified)
MIC (Staphylococcus aureus [1]): 1 µg/mL (≈ 1.49 µM) | MIC (Staphylococcus aureus [6]): 1 µg/mL (≈ 1.49 µM) | MIC (Staphylococcus aureus [2]): 1 µg/mL (≈ 1.49 µM) | MIC (Corynebacterium xerosis): 0.016 µg/mL (≈ 0.0238 µM) | MIC (Staphylococcus aureus [3]): 1 µg/mL (≈ 1.49 µM) | MIC [4]: 1 µg/mL (≈ 1.49 µM) | MIC (Staphylococcus aureus [5]): 4 µg/mL (≈ 5.96 µM)

CC(=O)O[C@H]1C[C@@]2(C)[C@@H](C[C@@H](O)[C@H]3[C@@]4(C)CC[C@@H](O)[C@@H](C)C4CC[C@@]32C)/C1=C(\CCCCc1ccc(C2(C(F)(F)F)N=N2)cc1)C(=O)O (stereo partly specified)
MIC (Staphylococcus aureus [1]): 1 µg/mL (≈ 1.48 µM) | MIC (Staphylococcus aureus [2]): 1 µg/mL (≈ 1.48 µM) | MIC (Corynebacterium xerosis): 0.063 µg/mL (≈ 0.0934 µM) | MIC (Staphylococcus aureus [3]): 1 µg/mL (≈ 1.48 µM) | MIC [4]: 1 µg/mL (≈ 1.48 µM) | MIC (Staphylococcus aureus [5]): 2 µg/mL (≈ 2.96 µM)

CC(=O)O[C@H]1C[C@@]2(C)[C@@H](C[C@@H](O)[C@H]3[C@@]4(C)CC[C@@H](O)[C@@H](C)[C@@H]4CC[C@@]32C)/C1=C(\CCC=C(C)C)C(=O)O [FUSIDIC ACID]
MIC (Staphylococcus aureus [1]): < 0.063 µg/mL | MIC (Staphylococcus aureus [6]): 0.063 µg/mL (≈ 0.122 µM) | MIC (Staphylococcus aureus [2]): < 0.063 µg/mL | MIC (Corynebacterium xerosis): 0.016 µg/mL (≈ 0.031 µM) | MIC (Staphylococcus aureus [3]): < 0.063 µg/mL | MIC [4]: 0.063 µg/mL (≈ 0.122 µM) | MIC (Staphylococcus aureus [5]): 0.063 µg/mL (≈ 0.122 µM)
